This assay deals with T1, human neprilysin (EC 3.4.24.11; NEP) (Homo sapiens, UniProt P08473).
T1 construct: purchased R&D Systems, Minneapolis, Minn; 1182-ZN
In words: In vitro enzyme inhibition assay at human NEP (fluorogenic peptide substrate). The following applies: recombinant human NEP; 37° C.; substrate Mca-D-Arg-Arg-Leu-Dap-(Dnp)-OH 10 μM; values given as ranges; read-out: pKi values at human NEP (converted). The format is biochemical. How it is done:
In vitro Assays for the Quantitation of Inhibitor Potencies at Human and Rat NEP, and Human ACE
The inhibitory activities of compounds at human and rat neprilysin (EC 3.4.24.11; NEP) and human angiotensin converting enzyme (ACE) were determined using in vitro assays as described below.
Recombinant human NEP and recombinant human ACE were obtained commercially (R&D Systems, Minneapolis, Minn., catalog numbers 1182-ZN and 929-ZN, respectively). The fluorogenic peptide substrate Mca-D-Arg-Arg-Leu-Dap-(Dnp)-OH (Medeiros et al. (1997) Braz. J. Med. Biol. Res. 30:1157-62; Anaspec, San Jose, Calif.) and Abz-Phe-Arg-Lys(Dnp)-Pro-OH (Araujo et al. (2000) Biochemistry 39:8519-8525; Bachem, Torrance, Calif.) were used in the NEP and ACE assays respectively.
The assays were performed in 384-well white opaque plates at 37° C. using the fluorogenic peptide substrates at a concentration of 10 μM in Assay Buffer (NEP: 50 mM HEPES, pH 7.5, 100 mM NaCl, 0.01% polyethylene glycol sorbitan monolaurate (Tween-20), 10 μM ZnSO4; ACE: 50 mM HEPES, pH 7.5, 100 mM NaCl, 0.01% Tween-20, 1 μM ZnSO4).
Test compounds were assayed over the range of concentrations from 10 μM to 20 pM. Test compounds were added to the enzymes and incubated for 30 minute at 37° C. prior to initiating the reaction by the addition of substrate. Reactions were terminated after 20 minutes of incubation at 37° C. by the addition of glacial acetic acid to a final concentration of 3.6% (v/v).
Plates were read on a fluorometer with excitation and emission wavelengths set to 320 nm and 405 nm, respectively Inhibition constants were obtained by nonlinear regression of the data using the equation (GraphPad Software, Inc., San Diego, Calif.): v=v0/[1+(I/K′)] where v is the reaction rate, v0 is the uninhibited reaction rate, I is the inhibitor concentration and K′ is the apparent inhibition constant.
Compounds of the invention were tested in this assay and found to have pKi values at human NEP as follows.

T1 sequence (P08473 52-750 limits assumed): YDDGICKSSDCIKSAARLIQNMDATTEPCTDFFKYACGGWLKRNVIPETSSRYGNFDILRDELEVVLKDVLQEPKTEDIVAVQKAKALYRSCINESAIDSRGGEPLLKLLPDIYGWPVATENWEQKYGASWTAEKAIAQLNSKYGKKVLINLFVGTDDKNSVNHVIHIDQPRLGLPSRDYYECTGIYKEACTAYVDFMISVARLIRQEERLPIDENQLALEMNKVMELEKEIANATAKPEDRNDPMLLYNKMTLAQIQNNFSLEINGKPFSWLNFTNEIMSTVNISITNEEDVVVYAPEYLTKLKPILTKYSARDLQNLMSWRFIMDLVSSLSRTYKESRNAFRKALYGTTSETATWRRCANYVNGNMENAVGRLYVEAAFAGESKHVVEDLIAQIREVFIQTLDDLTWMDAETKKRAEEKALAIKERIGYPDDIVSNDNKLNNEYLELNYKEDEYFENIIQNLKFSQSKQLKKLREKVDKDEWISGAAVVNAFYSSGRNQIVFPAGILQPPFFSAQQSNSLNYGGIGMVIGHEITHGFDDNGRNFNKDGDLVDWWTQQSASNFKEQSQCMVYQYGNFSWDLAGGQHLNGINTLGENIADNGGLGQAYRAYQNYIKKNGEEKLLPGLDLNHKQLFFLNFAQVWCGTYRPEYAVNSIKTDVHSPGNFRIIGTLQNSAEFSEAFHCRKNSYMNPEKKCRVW

For `O=C(CCCc1cc(F)ccc1C(=O)O)N[C@H](Cc1ccccc1Cl)[C@@H](O)C(=O)O` [Example 2-1, 2-{3-[(1R,2R)-2-Carboxy-1-(2-chlorobenzyl)-2-hydroxy-ethylcarbamoyl]-propyl}-4-fluoro-benzoic acid], the Ki is no more than 1 nM.

On to `O=C(N[C@H](Cc1ccccc1Cl)[C@@H](O)C(=O)O)c1cc(F)c(F)c(-c2ccccc2C(=O)O)c1` [Example 3, 5′-[(1R,2R)-2-Carboxy-1-(2-chlorobenzyl)-2-hydroxy-ethylcarbamoyl]-2′,3′-difluoro-biphenyl-2-carb oxylic Acid], for which the Ki is no more than 1 nM.

Take `CCc1ccc(C(=O)N[C@H](Cc2ccccc2Cl)[C@@H](O)C(=O)O)cc1-n1c(=O)[nH]c2sc(C)cc2c1=O` [Example 4, (2R,3R)-4-(2-Chlorophenyl)-3-[4-ethyl-3-(6-methyl-2,4-dioxo-1,4-dihydro-2H-thieno[2,3-d]pyrimidin-3-yl)-benzoylamino]-2-hydroxy-butyric Acid]: the Ki is no more than 1 nM.

With `O=C(N[C@H](Cc1ccccc1Cl)[C@@H](O)C(=O)O)c1cc(F)cc(-c2ccccc2C(=O)O)c1` [Example 6-1, 5′-[(1R,2R)-2-Carboxy-1-(2-chlorobenzyl)-2-hydroxy-ethylcarbamoyl]-3′-fluoro-biphenyl-2-carboxylic acid], the Ki was 1.26 to 10 nM.

Consider `O=C(N[C@H](Cc1ccccc1Cl)[C@@H](O)C(=O)O)c1cc(Cl)cc(-c2ccccc2C(=O)O)c1` [Example 6-2, 5′-[(1R,2R)-2-Carboxy-1-(2-chlorobenzyl)-2-hydroxy-ethylcarbamoyl]-3′-chloro-biphenyl-2-carboxylic acid], for which the Ki was no more than 1 nM.

Turning to `O=C(N[C@H](Cc1ccccc1Cl)[C@@H](O)C(=O)O)c1ccc(Cl)c(-c2ccccc2C(=O)O)c1` [Example 6-3, 5′-[(1R,2R)-2-Carboxy-1-(2-chlorobenzyl)-2-hydroxy-ethylcarbamoyl]-2′-chloro-biphenyl-2-carboxylic acid], the Ki is no more than 1 nM.

For the molecule `O=C(N[C@H](Cc1ccccc1Cl)[C@@H](O)C(=O)O)c1cc(Cl)c(F)c(-c2ccccc2C(=O)O)c1` [Example 6-4, 5′-[(1R,2R)-2-Carboxy-1-(2-chlorobenzyl)-2-hydroxy-ethylcarbamoyl]-3′-chloro-2′-fluoro-biphenyl-2-carboxylic acid], the Ki was 1.26 to 10 nM.

For the molecule `Cc1ccc(C(=O)N[C@H](Cc2ccccc2Cl)[C@H](O)C(=O)O)cc1-c1ccccc1C(=O)O` [Example 6-5, 5′-[(1R,2S)-2-Carboxy-1-(2-chlorobenzyl)-2-hydroxy-ethylcarbamoyl]-2′-methyl-biphenyl-2-carboxylic acid], the Ki is 12.6 to 100 nM.

Take `Cc1ccc(C(=O)N[C@H](Cc2ccccc2Cl)[C@@H](O)C(=O)O)cc1-c1ccccc1C(=O)O` [Example 6-6, 5′-[(1R,2R)-2-Carboxy-1-(2-chlorobenzyl)-2-hydroxy-ethylcarbamoyl]-2′-methyl-biphenyl-2-carboxylic acid]: the Ki is no more than 1 nM.

As to `COc1ccc(C(=O)N[C@H](Cc2ccccc2Cl)[C@@H](O)C(=O)O)cc1-c1ccccc1C(=O)O` [Example 6-7, 5′-[(1R,2R)-2-Carboxy-1-(2-chlorobenzyl)-2-hydroxy-ethylcarbamoyl]-2′-methoxy-biphenyl-2-carboxylic acid], the Ki was 12.6 to 100 nM.

On to `Cc1cc(C(=O)N[C@H](Cc2ccccc2Cl)[C@@H](O)C(=O)O)ccc1-c1ccccc1C(=O)O` [Example 6-8, 4′-[(1R,2R)-2-Carboxy-1-(2-chlorobenzyl)-2-hydroxy-ethylcarbamoyl]-2′-methyl-biphenyl-2-carboxylic acid], for which the Ki was 1.26 to 10 nM.

On to `O=C(N[C@H](Cc1ccccc1Cl)[C@@H](O)C(=O)O)c1ccc(-c2ccccc2C(=O)O)c(F)c1` [Example 6-9, 4′-[(1R,2R)-2-Carboxy-1-(2-chlorobenzyl)-2-hydroxy-ethylcarbamoyl]-2′-fluoro-biphenyl-2-carboxylic acid], for which the Ki is 1.26 to 10 nM.

`O=C(N[C@H](Cc1ccccc1Cl)[C@@H](O)C(=O)O)c1ccc(N2N=C(C(F)(F)F)CC2=O)cc1` [Example 6-14, (2R,3R)-4-(2-Chlorophenyl)-2-hydroxy-3-[4-(5-oxo-3-trifluoromethyl-4,5-dihydro-pyrazol-1-yl)-benzoylamino]-butyric acid]: the Ki was 12.6 to 100 nM.

Turning to `CC1=NN(c2ccc(C(=O)N[C@H](Cc3ccccc3Cl)[C@H](O)C(=O)O)cc2)C(=O)C1` [Example 6-15, (2S,3R)-4-(2-Chlorophenyl)-2-hydroxy-3-[4-(3-methyl-5-oxo-4,5-dihydro-pyrazol-1-yl)-benzoylamino]-butyric acid], the Ki is 1.26 to 10 nM.

On to `CCc1ccc(C(=O)N[C@H](Cc2ccccc2Cl)[C@@H](O)C(=O)O)cc1N1N=C(C)CC1=O` [Example 6-17, (2R,3R)-4-(2-Chlorophenyl)-3-[4-ethyl-3-(3-methyl-5-oxo-4,5-dihydro-pyrazol-1-yl)-benzoylamino]-2-hydroxy-butyric acid], for which the Ki is 1.26 to 10 nM.

Take `CC1=NN(Cc2ccc(C(=O)N[C@H](Cc3ccccc3Cl)[C@@H](O)C(=O)O)cc2)C(=O)C1` [Example 6-19, (2R,3R)-4-(2-Chlorophenyl)-2-hydroxy-3-[4-(3-methyl-5-oxo-4,5-dihydro-pyrazol-1-ylmethyl)-benzoylamino]-butyric acid]: the Ki is 12.6 to 100 nM.

For `Cc1nn(-c2ccc(C(=O)N[C@H](Cc3ccccc3)[C@@H](O)C(=O)O)cc2)c(C)c1Cl` [Example 10-1, (2R,3R)-3-[4-(4-Chloro-3,5-dimethyl-pyrazol-1-yl)-benzoylamino]-2-hydroxy-4-phenyl-butyric acid], the Ki is 12.6 to 100 nM.

As for `O=C(N[C@H](Cc1ccccc1)[C@@H](O)C(=O)O)c1ccc(-n2cccn2)cc1` [Example 10-2, (2R,3R)-2-Hydroxy-4-phenyl-3-(4-pyrazol-1-yl-benzoylamino)-butyric acid], the Ki was 12.6 to 100 nM.

Turning to `O=C(N[C@H](Cc1ccccc1)[C@@H](O)C(=O)O)c1ccc(-n2ccc(C(F)(F)F)n2)cc1` [Example 10-3, (2R,3R)-2-Hydroxy-4-phenyl-3-[4-(3-trifluoromethyl-pyrazol-1-yl)-benzoylamino]-butyric acid], the Ki was 12.6 to 100 nM.

Regarding `Cc1cc(C)n(-c2ccc(C(=O)N[C@H](Cc3ccccc3)[C@@H](O)C(=O)O)cc2)n1` [Example 10-4, (2R,3R)-3-[4-(3,5-Dimethyl-pyrazol-1-yl)-benzoylamino]-2-hydroxy-4-phenyl-butyric acid], the Ki was 12.6 to 100 nM.

Turning to `Cc1cc(C)n(-c2cccc(C(=O)N[C@H](Cc3ccccc3)[C@@H](O)C(=O)O)c2)n1` [Example 10-5, (2R,3R)-3-[3-(3,5-Dimethyl-pyrazol-1-yl)-benzoylamino]-2-hydroxy-4-phenyl-butyric acid], the Ki was 12.6 to 100 nM.

With `Cc1cc(C)n(-c2cc(C(=O)N[C@H](Cc3ccccc3)[C@@H](O)C(=O)O)ccc2F)n1` [Example 10-6, (2R,3R)-3-[3-(3,5-Dimethylpyrazol-1-yl)-4-fluorobenzoylamino]-2-hydroxy-4-phenyl-butyric acid], the Ki is 12.6 to 100 nM.

Regarding `Cc1cc(C)n(-c2cc(C(=O)N[C@H](Cc3ccccc3)[C@@H](O)C(=O)O)ccc2C)n1` [Example 10-7, (2R,3R)-3-[3-(3,5-Dimethylpyrazol-1-yl)-4-methylbenzoylamino]-2-hydroxy-4-phenyl-butyric acid], the Ki is 12.6 to 100 nM.

These data come from patent publication US8686184B2, “Neprilysin inhibitors” (Theravance, Inc., priority 2011, dated 2014).
